# Reference: patent US9732085B2, “Pyridinone and pyrimidinone derivatives as factor Xia” (ONO PHARMACEUTICAL CO., LTD., priority 2011, dated 2017)
# Where a name gives a salt, the structure may show the parent alone.
# Target: Human Factor XIa (Homo sapiens (Human), UniProt P03951)
# Test: Factor XIa enzyme activity (chromogenic substrate S-2366)
# Format: biochemical
# Settings: Table 2, comparison with comparative compounds; read-out: In vitro FXIa inhibitory activity IC50
# Experimental: Inhibitory activities of compounds of the present invention against factor XIa, Xa, XIIa, IXa, VIIa, plasma kallikrein or thrombin were evaluated using appropriate purified proteases and synthetic substrates. The rate of hydrolysis of the chromogenic substrate by the relevant protease was continuously measured at 405 nm.
# Inhibitory activity against each enzyme was calculated as % inhibition using the equation described below. % Inhibition=[[(rate without compound)−(rate with compound)](rate without compound)]×100%. Each half maximal inhibitory concentration (IC50) value was determined by plotting the concentration of compound of the invention against the % inhibition. (1-1) Factor XIa Enzyme Activity
# Human Factor XIa (Haematologic Technologies Inc.) activity was measured at an enzyme concentration of 0.1 U/mL in 150 mM NaCl, 5 mM KCl, 1 mg/mL PEG6000, 50 mM HEPES-NaOH (pH7.4) with 300 μM S-2366 (pyroGlu-Pro-Arg-pNA, Chromogenix).
# Human Factor XIa, sequence (P03951 388-625): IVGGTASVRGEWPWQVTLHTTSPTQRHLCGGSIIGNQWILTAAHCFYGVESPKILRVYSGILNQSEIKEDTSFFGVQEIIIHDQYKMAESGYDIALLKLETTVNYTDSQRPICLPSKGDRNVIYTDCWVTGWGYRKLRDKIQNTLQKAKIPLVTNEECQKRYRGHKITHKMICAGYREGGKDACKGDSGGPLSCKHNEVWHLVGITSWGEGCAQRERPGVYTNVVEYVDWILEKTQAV
# Human Factor XIa, sequence (P03951 19-387 partner): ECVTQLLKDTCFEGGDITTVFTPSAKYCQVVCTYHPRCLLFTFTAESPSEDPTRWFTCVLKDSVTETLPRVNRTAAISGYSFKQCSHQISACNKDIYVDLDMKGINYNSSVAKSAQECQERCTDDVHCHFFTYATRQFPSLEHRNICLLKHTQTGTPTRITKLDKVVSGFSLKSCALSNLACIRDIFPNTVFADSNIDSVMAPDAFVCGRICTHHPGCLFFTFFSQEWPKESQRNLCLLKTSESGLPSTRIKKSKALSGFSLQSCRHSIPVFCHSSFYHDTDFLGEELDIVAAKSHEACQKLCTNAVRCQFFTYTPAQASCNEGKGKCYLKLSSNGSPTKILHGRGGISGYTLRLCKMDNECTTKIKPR
row,IC50 [nM],Compound
1,> 10000,"COc1cc(Nc2ccc3n(c2=O)C(c2ccc(F)cc2)CCC3)ccc1-n1cnc(C)c1 (centres unmarked) [Comp. Ex 4, reference compound]"

# Same assay, conditions: human Factor XIa 0.1 U/mL, 300 μM S-2366, pH7.4; read-out: In vitro FXIa inhibitory activity IC50
row,IC50 [nM],Compound
1,14,"COC(=O)Nc1ccc(-c2cnc(C(C)n3ccc(-c4cc(Cl)ccc4-n4cnnn4)cc3=O)[nH]2)cc1 (centres unmarked) [Example 61, methyl{4-[2-(1-{4-[5-chloro-2-(1H-tetrazol-1-yl)phenyl]-2-oxo-1(2H)-pyridinyl}ethyl)-1H-imidazol-5-yl]phenyl}carbamate]"
2,3.9,"O=C1CCc2cc(-c3c[nH]c(C4CCc5cc(-c6cc(Cl)ccc6-n6cnnn6)cc(=O)n54)n3)ccc2N1 (centres unmarked) [Example 86, 6-(2-{7-[5-chloro-2-(1H-tetrazol-1-yl)phenyl]-5-oxo-1,2,3,5-tetrahydro-3-indolizinyl}-1H-imidazol-4-yl)-3,4-dihydro-2(1H)-quinolinone]"
3,8.3,"COC(=O)Nc1ccc(-c2cnc([C@@H]3CCc4cc(-c5cc(C)ccc5-n5cnnn5)cc(=O)n43)[nH]2)cc1 [Example 309, methyl[4-(2-{(3S)-7-[5-methyl-2-(1H-tetrazol-1-yl)phenyl]-5-oxo-1,2,3,5-tetrahydro-3-indolizinyl}-1H-imidazol-5-yl)phenyl]carbamate]"
4,11,"COC(=O)Nc1ccc(-c2cnc([C@@H]3CSc4cc(-c5cc(Cl)ccc5-n5cnnn5)cc(=O)n43)[nH]2)cc1 [Example 270, methyl[4-(2-{(3R)-7-[5-chloro-2-(1H-tetrazol-1-yl)phenyl]-5-oxo-2,3-dihydro-5H-[1,3]thiazolo[3,2-a]pyridin-3-yl}-1H-imidazol-5-yl)phenyl]carbamate]"
5,1.5,"Nc1ccc(-c2[nH]c([C@@H]3CCc4cc(-c5cc(Cl)ccc5-n5cnnn5)cc(=O)n43)nc2Cl)cn1 [Example 198, (3S)-3-[5-(6-amino-3-pyridinyl)-4-chloro-1H-imidazol-2-yl]-7-[5-chloro-2-(1H-tetrazol-1-yl)phenyl]-2,3-dihydro-5(1H)-indolizinone]"
6,2.5,"COC(=O)Nc1ccc(-c2cnc([C@@H]3CCc4cc(-c5cc(Cl)ccc5-n5cc(C#N)nn5)cc(=O)n43)[nH]2)cc1 [Example 290, methyl[4-(2-{(3S)-7-[5-chloro-2-(4-cyano-1H-1,2,3-triazol-1-yl)phenyl]-5-oxo-1,2,3,5-tetrahydro-3-indolizinyl}-1H-imidazol-5-yl)phenyl]carbamate]"
7,1.7,"O=C(O)c1cc(-c2nc(F)c(C3CCc4cc(-c5cc(Cl)ccc5-n5cnnn5)cc(=O)n43)[nH]2)cs1 (centres unmarked) [Example 848, 4-(5-{7-[5-chloro-2-(1H-tetrazol-1-yl)phenyl]-5-oxo-1,2,3,5-tetrahydro-3-indolizinyl}-4-fluoro-1H-imidazol-2-yl)-2-thiophenecarboxylic acid]"
8,13,"Cc1cc(-c2cc(Cl)ccc2-n2cnnn2)cc(=O)n1Cc1ncc(-c2csc(C(=O)O)c2)[nH]1 [Example 400, 4-[2-({4-[5-chloro-2-(1H-tetrazol-1-yl)phenyl]-6-methyl-2-oxo-1(2H)-pyridinyl}methyl)-1H-imidazol-5-yl]-2-thiophenecarboxylic acid hydrochloride]"
9,1.6,"O=C(O)c1ccc(-c2cnc([C@@H]3CCc4c(Cl)c(-c5cc(Cl)ccc5-n5cnnn5)cc(=O)n43)[nH]2)s1 [Example 387, 5-(2-{(3S)-8-chloro-7-[5-chloro-2-(1H-tetrazol-1-yl)phenyl]-5-oxo-1,2,3,5-tetrahydro-3-indolizinyl}-1H-imidazol-5-yl)-2-thiophenecarboxylic acid hydrochloride]"
10,11,"COC(=O)Nc1ccc(-c2[nH]c([C@@H]3CCc4cc(-c5cc(Cl)ccc5-n5cnnn5)cc(=O)n43)nc2Cl)nc1 [Example 230, methyl[6-(4-chloro-2-{(3S)-7-[5-chloro-2-(1H-tetrazol-1-yl)phenyl]-5-oxo-1,2,3,5-tetrahydro-3-indolizinyl}-1H-imidazol-5-yl)-3-pyridinyl]carbamate]"
11,1.4,"O=C(O)c1cc(-c2cnc([C@@H]3CCc4cc(-c5cc(Cl)ccc5-n5cnnn5)cc(=O)n43)[nH]2)cs1 [Example 363, 4-(2-{(3S)-7-[5-chloro-2-(1H-tetrazol-1-yl)phenyl]-5-oxo-1,2,3,5-tetrahydro-3-indolizinyl}-1H-imidazol-5-yl)-2-thiophenecarboxylic acid hydrochloride]"
12,17,"COC(=O)Nc1ccc(-c2nnc(C3CCc4cc(-c5cc(Cl)ccc5-n5cnnn5)cc(=O)n43)[nH]2)cc1 (centres unmarked) [Example 245, methyl[4-(5-{7-[5-chloro-2-(1H-tetrazol-1-yl)phenyl]-5-oxo-1,2,3,5-tetrahydro-3-indolizinyl}-4H-1,2,4-triazol-3-yl)phenyl]carbamate]"
13,5.7,"COC(=O)Nc1ccc(-c2cnc(C(Cc3cccnc3)n3ccc(-c4cc(Cl)ccc4-n4cnnn4)cc3=O)[nH]2)cc1 (centres unmarked) [Example 278, methyl(4-{2-[1-{4-[5-chloro-2-(1H-tetrazol-1-yl)phenyl]-2-oxo-1(2H)-pyridinyl}-2-(3-pyridinyl)ethyl]-1H-imidazol-5-yl}phenyl)carbamate]"
14,7.2,"CCC(c1nc(-c2ccc(NC(=O)OC)cc2)c(Cl)[nH]1)n1ccc(-c2cc(Cl)ccc2-n2cnnn2)cc1=O (centres unmarked) [Example 60, methyl{4-[5-chloro-2-(1-{4-[5-chloro-2-(1H-tetrazol-1-yl)phenyl]-2-oxo-1(2H)-pyridinyl}propyl)-1H-imidazol-4-yl]phenyl}carbamate]"
15,2.8,"Nc1ccc(-c2cnc([C@@H]3CCc4cc(-c5cc(Cl)ccc5-n5cnnn5)cc(=O)n43)[nH]2)c(Cl)n1 [Example 210, (3S)-3-[5-(6-amino-2-chloro-3-pyridinyl)-1H-imidazol-2-yl]-7-[5-chloro-2-(1H-tetrazol-1-yl)phenyl]-2,3-dihydro-5(1H)-indolizinone]"
16,1.1,"O=C(O)c1ccc(-c2[nH]c([C@@H]3CCc4cc(-c5cc(Cl)ccc5-n5cnnn5)cc(=O)n43)nc2F)s1 [Example 399, 5-(2-{(3S)-7-[5-chloro-2-(1H-tetrazol-1-yl)phenyl]-5-oxo-1,2,3,5-tetrahydro-3-indolizinyl}-4-fluoro-1H-imidazol-5-yl)-2-thiophenecarboxylic acid trifluoroacetate]"
17,3.8,"Nc1ccc(-c2cnc([C@@H]3CCc4cc(-c5cc(Cl)ccc5-n5cnnn5)cc(=O)n43)[nH]2)c(F)n1 [Example 216, (3S)-3-[5-(6-amino-2-fluoro-3-pyridinyl)-1H-imidazol-2-yl]-7-[5-chloro-2-(1H-tetrazol-1-yl)phenyl]-2,3-dihydro-5(1H)-indolizinone]"
18,2.1,"O=C(O)c1cc(-c2cnc([C@@H]3CCc4nc(-c5cc(Cl)ccc5-n5cnnn5)cc(=O)n43)[nH]2)cs1 [Example 392, 4-(2-{(6S)-2-[5-chloro-2-(1H-tetrazol-1-yl)phenyl]-4-oxo-4,6,7,8-tetrahydropyrrolo[1,2-a]pyrimidin-6-yl}-1H-imidazol-5-yl)-2-thiophenecarboxylic acid hydrochloride]"
19,1.1,"O=C(O)c1cc(-c2cnc([C@@H]3CCc4c(Cl)c(-c5cc(Cl)ccc5-n5cnnn5)cc(=O)n43)[nH]2)cs1 [Example 391, 4-(2-{(3S)-8-chloro-7-[5-chloro-2-(1H-tetrazol-1-yl)phenyl]-5-oxo-1,2,3,5-tetrahydro-3-indolizinyl}-1H-imidazol-5-yl)-2-thiophenecarboxylic acid trifluoroacetate]"
20,6.1,"COCCC(c1nc(Cl)c(-c2ccc(NC(=O)OC)cc2)[nH]1)n1ccc(-c2cc(Cl)ccc2-n2cnnn2)cc1=O (centres unmarked) [Example 264, methyl{4-[4-chloro-2-(1-{4-[5-chloro-2-(1H-tetrazol-1-yl)phenyl]-2-oxo-1(2H)-pyridinyl]-3-methoxypropyl)-1H-imidazol-5-yl}phenyl}carbamate]"
21,4.8,"COC(=O)Nc1ccc(-c2nc(Cl)c(C3CCc4cc(-c5cc(Cl)ccc5-n5cnnn5)cc(=O)n43)[nH]2)cc1 (centres unmarked) [Example 241, methyl[4-(4-chloro-5-{7-[5-chloro-2-(1H-tetrazol-1-yl)phenyl]-5-oxo-1,2,3,5-tetrahydro-3-indolizinyl}-1H-imidazol-2-yl)phenyl]carbamate]"
22,47,"COC(=O)Nc1ccc(-c2cnc(C3CCc4cc(-c5cc(Cl)ccc5-n5cnnn5)cc(=O)n43)[nH]2)s1 (centres unmarked) [Example 181, methyl[5-(2-{7-[5-chloro-2-(1H-tetrazol-1-yl)phenyl]-5-oxo-1,2,3,5-tetrahydro-3-indolizinyl}-1H-imidazol-5-yl)-2-thienyl]carbamate]"
23,1.6,"O=C(O)c1scc(-c2cnc([C@@H]3CCc4cc(-c5cc(Cl)ccc5-n5cnnn5)cc(=O)n43)[nH]2)c1F [Example 834, 4-(2-{(3S)-7-[5-chloro-2-(1H-tetrazol-1-yl)phenyl]-5-oxo-1,2,3,5-tetrahydro-3-indolizinyl}-1H-imidazol-5-yl)-3-fluoro-2-thiophenecarboxylic acid]"
24,4.6,"COCCOC(=O)Nc1ccc(-c2cnc(C3CCc4cc(-c5cc(Cl)ccc5-n5cnnn5)cc(=O)n43)[nH]2)cc1 (centres unmarked) [129(2), 2-methoxyethyl[4-(2-{7-[5-chloro-2-(1H-tetrazol-1-yl)phenyl]-5-oxo-1,2,3,5-tetrahydro-3-indolizinyl}-1H-imidazol-5-yl)phenyl]carbamate]"
25,4.2,"O=C(O)c1ccc(-c2cnc([C@@H]3CCc4cc(-c5cc(Cl)ccc5-n5cnnn5)cc(=O)n43)[nH]2)s1 [Example 347, 5-(2-{(3S)-7-[5-chloro-2-(1H-tetrazol-1-yl)phenyl]-5-oxo-1,2,3,5-tetrahydro-3-indolizinyl}-1H-imidazol-5-yl)-2-thiophenecarboxylic acid]"
